Experiments:
[1] = degree of cleaning fabrics: Lab differences, whiteness and yellowness index of soil test cloth
Experimental: In the tests of the degree of cleaning fabrics in Examples 1 to 9, four kinds of standard soil test cloths are taken, the types of the cloth are respectively polyester, cotton, wool, polyester/cotton. The conditions of the tests of degree of cleaning fabrics are similar to those of the above dry-cleaning tests. After the soil test cloths have been dry cleaned, the reflectance, the whiteness index and the yellowness index thereof are measured by means of a color matching system to identify the degree of cleaning fabrics of the dry-cleaning solvents.
After the soil test cloths of polyester/cotton, wool, cotton and polyester are respectively dry-cleaned with the dry-cleaning solvents, the degrees of cleaning the soil test cloths of the dry-cleaning solvents is measured. The dry-cleaning procedure is carried out under the conditions that temperature is 25±2° C., liquid ratio is 1:40 and dry cleaning time is 30 minutes in a shaking manner and then the soil test cloths which have been dry-cleaned are dried under the temperature of 60±2° C.
Color differences can be analyzed according to Munsell Color Solid Theory and a bright and a chroma of a hue can be decided by means of a solid rectangular coordinate.
According to an opponent-color coordinate recommended by the CIE (Commission International de I'Eclairage) Society in 1976, wherein a redness-greenness coordinate is set to be the “a” coordinate with redness as a positive value and greenness as a negative together with a yellowness-blueness coordinate forms the “b” coordinate wherein yellowness indicates a positive value and blueness indicates a negative value, the two sets of coordinates form a two dimensional coordinate further with a third coordinate which indicates the bright to form the opponent-color coordinate designed by the CIE Lab, a bright value “L” in the third coordinate, a chroma value “a” in the redness-greenness coordinate and a chroma value “b” in the yellowness-blueness coordinate are related to red, blue, green tristimulus values as shown in the following:
ΔE=((ΔL)^2+(Δa)^2+(Δb)^2)^½
In FIG. 1, Δc indicates the chroma difference between a chroma value of a specimen sample and a chroma value of a standard sample, and Δh indicates the hue angle difference. By means of the analysis of chroma difference and hue angle difference, the two values Δc and Δh, can be easily obtained.

[2] = physical properties of the solvent; conditions: Table 1
[3] = dangerousness (Table 1)
[4] = soil test cloth of cotton, dry cleaned five times
[5] = soil test cloth of cotton, dry cleaned one time
[6] = soil test cloth of cotton, dry cleaned two times
[7] = soil test cloth of polyester/cotton, dry cleaned five times
[8] = soil test cloth of polyester/cotton, dry cleaned one time
[9] = soil test cloth of polyester/cotton, dry cleaned two times
[10] = soil test cloth of polyester, dry cleaned five times
[11] = soil test cloth of polyester, dry cleaned one time
[12] = soil test cloth of polyester, dry cleaned two times
[13] = soil test cloth of wool, dry cleaned five times
[14] = soil test cloth of wool, dry cleaned one time
[15] = soil test cloth of wool, dry cleaned two times

ClC(Cl)=C(Cl)Cl [perchloroethylene]
ΔE [1, 4]: 2.88 | ΔL [1, 4]: 2.8 | Δa [1, 4]: −0.02 | Δb [1, 4]: −0.68 | Δc [1, 4]: −0.66 | Δh [1, 4]: 0.16 | yellowness index ([1]; soil test cloth of cotton, dry cleaned five times, before dry cleaned 3.85): 2.18 | whiteness index ([1]; soil test cloth of cotton, dry cleaned five times, before dry cleaned 39.47): 45.97 | ΔE [1, 5]: 4.27 | ΔL [1, 5]: 4.22 | Δa [1, 5]: −0.02 | Δb [1, 5]: −0.61 | Δc [1, 5]: −0.6 | Δh [1, 5]: 0.14 | yellowness index ([1]; soil test cloth of cotton, dry cleaned one time, before dry cleaned 3.85): 2.31 | whiteness index ([1]; soil test cloth of cotton, dry cleaned one time, before dry cleaned 39.47): 47.96 | ΔE [1, 6]: 4.09 | ΔL [1, 6]: 4.04 | Δa [1, 6]: −0.04 | Δb [1, 6]: −0.64 | Δc [1, 6]: −0.62 | Δh [1, 6]: 0.18 | yellowness index ([1]; soil test cloth of cotton, dry cleaned two times, before dry cleaned 3.85): 2.23 | whiteness index ([1]; soil test cloth of cotton, dry cleaned two times, before dry cleaned 39.47): 47.78 | ΔE [1, 7]: 2.83 | ΔL [1, 7]: 2.8 | Δa [1, 7]: −0.06 | Δb [1, 7]: −0.4 | Δc [1, 7]: −0.39 | Δh [1, 7]: 0.13 | yellowness index ([1]; soil test cloth of polyester/cotton, dry cleaned five times, before dry cleaned 3.41): 2.33 | whiteness index ([1]; soil test cloth of polyester/cotton, dry cleaned five times, before dry cleaned 37.82): 43.16 | ΔE [1, 8]: 3.29 | ΔL [1, 8]: 3.26 | Δa [1, 8]: −0.04 | Δb [1, 8]: −0.41 | Δc [1, 8]: −0.4 | Δh [1, 8]: 0.11 | yellowness index ([1]; soil test cloth of polyester/cotton, dry cleaned one time, before dry cleaned 3.41): 2.32 | whiteness index ([1]; soil test cloth of polyester/cotton, dry cleaned one time, before dry cleaned 37.82): 43.87 | ΔE [1, 9]: 3.96 | ΔL [1, 9]: 3.94 | Δa [1, 9]: −0.07 | Δb [1, 9]: −0.43 | Δc [1, 9]: −0.41 | Δh [1, 9]: 0.15 | yellowness index ([1]; soil test cloth of polyester/cotton, dry cleaned two times, before dry cleaned 3.41): 2.23 | whiteness index ([1]; soil test cloth of polyester/cotton, dry cleaned two times, before dry cleaned 37.82): 44.96 | ΔE [1, 10]: 5.67 | ΔL [1, 10]: 5.26 | Δa [1, 10]: −0.14 | Δb [1, 10]: −0.14 | Δc [1, 10]: 0.15 | Δh [1, 10]: −0.13 | whiteness index ([1]; soil test cloth of polyester, dry cleaned five times, before dry cleaned 45.11): 55.02 | yellowness index ([1]; soil test cloth of polyester, dry cleaned five times, before dry cleaned −10.35): −10.21 | ΔE [1, 11]: 6.68 | ΔL [1, 11]: 6.68 | Δa [1, 11]: −0.19 | Δb [1, 11]: 0.07 | Δc [1, 11]: −0.06 | Δh [1, 11]: −0.19 | whiteness index ([1]; soil test cloth of polyester, dry cleaned one time, before dry cleaned 45.11): 56.16 | yellowness index ([1]; soil test cloth of polyester, dry cleaned one time, before dry cleaned −10.35): −9.61 | ΔE [1, 12]: 7.61 | ΔL [1, 12]: 7.6 | Δa [1, 12]: −0.17 | Δb [1, 12]: −0.2 | Δc [1, 12]: 0.21 | Δh [1, 12]: −0.16 | whiteness index ([1]; soil test cloth of polyester, dry cleaned two times, before dry cleaned 45.11): 58.86 | yellowness index ([1]; soil test cloth of polyester, dry cleaned two times, before dry cleaned −10.35): −10.22 | ΔE [1, 13]: 1.9 | ΔL [1, 13]: −1.66 | Δa [1, 13]: −0.1 | Δb [1, 13]: −0.93 | Δc [1, 13]: −0.9 | Δh [1, 13]: 0.27 | yellowness index ([1]; soil test cloth of wool, dry cleaned five times, before dry cleaned 11.22): 9 | whiteness index ([1]; soil test cloth of wool, dry cleaned five times, before dry cleaned 22.57): 23.54 | ΔE [1, 14]: 2.1 | ΔL [1, 14]: −2.1 | Δa [1, 14]: −0.04 | Δb [1, 14]: −0.03 | Δc [1, 14]: −0.03 | Δh [1, 14]: 0.05 | yellowness index ([1]; soil test cloth of wool, dry cleaned one time, before dry cleaned 11.22): 11.37 | whiteness index ([1]; soil test cloth of wool, dry cleaned one time, before dry cleaned 22.57): 20.62 | ΔE [1, 15]: 2.09 | ΔL [1, 15]: −1.91 | Δa [1, 15]: −0.09 | Δb [1, 15]: −0.83 | Δc [1, 15]: −0.8 | Δh [1, 15]: 0.23 | yellowness index ([1]; soil test cloth of wool, dry cleaned two times, before dry cleaned 11.22): 9.3 | whiteness index ([1]; soil test cloth of wool, dry cleaned two times, before dry cleaned 22.57): 22.99 | increase of whiteness index ([1]; soil test cloth of wool, times not stated): does not change appreciably | Boiling point [2]: 121 °C | Solubility [2]: Insoluble in water, | Specific gravity [2]: 1.625 | Dangerousness [3]: medium toxicity

— patent US6491729B1
